Results reported in patent US20240246964A1 (Arbutus Biopharma Corporation, priority 2021, published 2024).

Target: human PD-L1 (Homo sapiens (Human), UniProt Q9NZQ7)
Experiment: T cell activation luciferase reporter cell culture system (T Cell Activation Assay)
Assay type: cell-based
Settings: luciferase reporter assay; PD-L1 aAPC/CHO-K1 cells with PD-1 effector Jurkat T cells

Chain of human PD-L1 (Q9NZQ7 19-290): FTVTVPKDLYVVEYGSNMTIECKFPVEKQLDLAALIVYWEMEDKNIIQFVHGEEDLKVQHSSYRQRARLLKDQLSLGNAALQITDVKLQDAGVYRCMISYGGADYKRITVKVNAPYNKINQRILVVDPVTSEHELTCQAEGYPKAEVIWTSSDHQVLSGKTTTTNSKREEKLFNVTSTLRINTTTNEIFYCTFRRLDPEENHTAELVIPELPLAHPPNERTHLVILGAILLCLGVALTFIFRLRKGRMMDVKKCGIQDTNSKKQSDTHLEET

COc1cc(-c2nccc(-c3cccc(-c4ccc(CN5CC6(CCNC6=O)C5)c(OC)n4)c3Cl)c2Cl)ccc1CNC1CCN(C(C)=O)CC1 [Example 525, 2-((6-(3-(2-(4-(((1-Acetylpiperidin-4-yl)amino)methyl)-3-methoxyphenyl)-3-chloropyridin-4-yl)-2-chlorophenyl)-2-methoxypyridin-3-yl)methyl)-2,6-diazaspiro[3.4] octan-5-one]
EC50: 0.0567 µM

COc1cc(-c2nccc(-c3cccc(-c4ccc(CN5CC6(CNC(=O)N6)C5)c(OC)n4)c3Cl)c2Cl)ccc1CNC1CCN(C(C)=O)CC1 [Example 526, 2-((6-(3-(2-(4-(((1-Acetylpiperidin-4-yl)amino)methyl)-3-methoxyphenyl)-3-chloropyridin-4-yl)-2-chlorophenyl)-2-methoxypyridin-3-yl)methyl)-2,5,7-triazaspiro[3.4]octan-6-one]
EC50: 0.0303 µM

COc1nc(-c2ccnc(-c3cccc4c3CC[C@@H]4Oc3nc(OC)c(CNC4CCN(C(C)=O)CC4)cc3C(F)(F)F)c2Cl)ccc1CNC[C@@H]1CCC(=O)N1 [Example 527, (S)-5-((((2′-((S)-1-((5-(((1-acetylpiperidin-4-yl)amino)methyl)-6-methoxy-3-(trifluoromethyl)pyridin-2-yl)oxy)-2,3-dihydro-1H-inden-4-yl)-3′-chloro-6-methoxy-[2,4′-bipyridin]-5-yl)methyl)amino)methyl)pyrrolidin-2-one]
EC50: 0.0144 µM

COc1cc(-c2nccc(-c3cccc(-c4ccc(CNC5CCN(C(C)=O)CC5)c(OC)n4)c3C(F)(F)F)c2Cl)ccc1CNC1CCN(C(C)=O)CC1 [Example 528, 1-(4-(((6-(3-(2-(4-(((1-Acetylpiperidin-4-yl)amino)methyl)-3-methoxyphenyl)-3-chloropyridin-4-yl)-2-(trifluoromethyl)phenyl)-2-methoxypyridin-3-yl)methyl)amino)piperidin-1-yl)ethan-1-one]
EC50: ≥ 10 µM

COc1cc(-c2nccc(-c3cccc(-c4ccc(CN5CC6(CCOCC6)C5)c(OC)n4)c3Cl)c2Cl)ccc1CNC1CCOCC1 [Example 531, N-(4-(4-(3-(5-((7-oxa-2-azaspiro[3.5]nonan-2-yl)methyl)-6-methoxypyridin-2-yl)-2-chlorophenyl)-3-chloropyridin-2-yl)-2-methoxybenzyl)tetrahydro-2H-pyran-4-amine]
EC50: 0.0413 µM

COc1nc(N[C@H]2CCc3c(-c4nccc(-c5ccc6c(CNC[C@@H]7CCC(=O)N7)cn(C)c6n5)c4Cl)cccc32)c(C(F)(F)F)nc1CNC[C@@H]1CCC(=O)N1 [Example 532, (S)-5-((((6-(3-Chloro-2-((S)-1-((6-methoxy-5-(((((S)-5-oxopyrrolidin-2-yl)methyl)amino)methyl)-3-(trifluoromethyl)pyrazin-2-yl)amino)-2,3-dihydro-1H-inden-4-yl)pyridin-4-yl)-1-methyl-1H-pyrrolo[2,3-b]pyridin-3-yl)methyl)amino)methyl)pyrrolidin-2-one]
EC50: 0.143 µM

COc1cc(-c2nccc(-c3cccc(-c4ccc(CNC5CCN(C(=O)CO)CC5)c(OC)n4)c3Cl)c2Cl)ccc1CNC1CCN(C(C)=O)CC1 [Example 533, 1-(4-(((6-(3-(2-(4-(((1-Acetylpiperidin-4-yl)amino)methyl)-3-methoxyphenyl)-3-chloropyridin-4-yl)-2-chlorophenyl)-2-methoxypyridin-3-yl)methyl)amino)piperidin-1-yl)-2-hydroxyethan-1-one]
EC50: 0.0135 µM

COc1cc(-c2nccc(-c3cccc(-c4ccc(CNCCCF)c(OC)n4)c3Cl)c2Cl)ccc1CNCCCF [Example 534, N-((6-(2-Chloro-3-(3-chloro-2-(4-(((3-fluoropropyl)amino)methyl)-3-methoxyphenyl)pyridin-4-yl)phenyl)-2-methoxypyridin-3-yl)methyl)-3-fluoropropan-1-amine]
EC50: 0.0567 µM

COc1cc(-c2ncnc(-c3cccc(-c4ccc(CN5CC6(CNC(=O)C6)C5)c(OC)n4)c3Cl)c2C)ccc1CN1CC2(CNC(=O)C2)C1 [Example 535, 2-((6-(2-Chloro-3-(6-(3-methoxy-4-((7-oxo-2,6-diazaspiro[3.4]octan-2-yl)methyl)phenyl)-5-methylpyrimidin-4-yl)phenyl)-2-methoxypyridin-3-yl)methyl)-2,6-diazaspiro[3.4]octan-7-one]
EC50: 1.06 µM

COc1cc(-c2nccc(-c3cccc(-c4ccc(CNC5CCN(C(C)=O)CC5)c(OC)n4)c3Cl)c2Cl)ccc1CNCCCF [Example 537, 1-(4-(((6-(2-Chloro-3-(3-chloro-2-(4-(((3-fluoropropyl)amino)methyl)-3-methoxyphenyl)pyridin-4-yl)phenyl)-2-methoxypyridin-3-yl)methyl)amino)piperidin-1-yl)ethan-1-one]
EC50: 0.0416 µM

COc1cc(-c2nccc(-c3cccc(-c4ccc(CNC5CCN(C(=O)CO)CC5)c(OC)n4)c3Cl)c2Cl)ccc1CN[C@H]1CC[C@H](O)CC1 [Example 539, 1-(4-(((6-(2-Chloro-3-(3-chloro-2-(4-((((1r,4r)-4-hydroxycyclohexyl)amino)methyl)-3-methoxyphenyl)pyridin-4-yl)phenyl)-2-methoxypyridin-3-yl)methyl)amino)piperidin-1-yl)-2-hydroxyethan-1-one]
EC50: 0.0318 µM

COc1nc(O[C@H]2CCc3c(-c4nccc(-c5ccc6c(CNC[C@@H]7CCC(=O)N7)cn(C)c6n5)c4Cl)cccc32)c(C(F)(F)F)cc1CNC[C@@H]1CCC(=O)N1 [Example 545, (S)-5-((((6-(3-Chloro-2-((S)-1-((6-methoxy-5-(((((S)-5-oxopyrrolidin-2-yl)methyl)amino)methyl)-3-(trifluoromethyl)pyridin-2-yl)oxy)-2,3-dihydro-1H-inden-4-yl)pyridin-4-yl)-1-methyl-1H-pyrrolo[2,3-b]pyridin-3-yl)methyl)amino)methyl)pyrrolidin-2-one]
EC50: 0.0213 µM

COc1nc(-c2ccnc(-c3cccc4c3CC[C@@H]4Oc3nc(OC)c(CNC[C@H](C)O)cc3C(F)(F)F)c2Cl)ccc1CN1CC2(CNC(=O)C2)C1 [Example 553, 2-((3′-Chloro-2′-((S)-1-((5-((((S)-2-hydroxypropyl)amino)methyl)-6-methoxy-3-(trifluoromethyl)pyridin-2-yl)oxy)-2,3-dihydro-1H-inden-4-yl)-6-methoxy-[2,4′-bipyridin]-5-yl)methyl)-2,6-diazaspiro[3.4]octan-7-one]
EC50: 0.053 µM

COc1cc(-c2ncnc(-c3cccc(-c4ccc(CN5CC6(CNC(=O)C6)C5)c(OC)n4)c3Cl)c2Cl)ccc1CN1CC2(CNC(=O)C2)C1 [Example 554, 2-((6-(2-chloro-3-(5-chloro-6-(3-methoxy-4-((7-oxo-2,6-diazaspiro[3.4]octan-2-yl)methyl)phenyl)pyrimidin-4-yl)phenyl)-2-methoxypyridin-3-yl)methyl)-2,6-diazaspiro[3.4]octan-7-one]
EC50: 0.103 µM

COc1cc(-c2nccc(-c3cccc(-c4ccc5c(CNCC6CCOCC6)cn(C)c5n4)c3Cl)c2Cl)ccc1CNC1CCN(C(C)=O)CC1 [Example 557, 1-(4-((4-(3-chloro-4-(2-chloro-3-(1-methyl-3-((((tetrahydro-2H-pyran-4-yl)methyl)amino)methyl)-1H-pyrrolo[2,3-b]pyridin-6-yl)phenyl)pyridin-2-yl)-2-methoxybenzyl)amino)piperidin-1-yl)ethan-1-one]
EC50: 0.378 µM

COc1cc(-c2nccc(-c3cccc(-c4ccc5c(CNC6CCS(=O)(=O)CC6)cn(C)c5n4)c3Cl)c2Cl)ccc1CNC1CCN(C(C)=O)CC1 [Example 558, 1-(4-((4-(3-Chloro-4-(2-chloro-3-(3-(((1,1-dioxidotetrahydro-2H-thiopyran-4-yl)amino)methyl)-1-methyl-1H-pyrrolo[2,3-b]pyridin-6-yl)phenyl)pyridin-2-yl)-2-methoxybenzyl)amino)piperidin-1-yl)ethan-1-one]
EC50: ≥ 10 µM

COc1nc(-c2cccc(-c3ccnc(-c4ccc5c(c4)S(=O)(=O)CCN(C)C5)c3Cl)c2Cl)ccc1CNC[C@@H]1CCC(=O)N1 [Example 561, (S)-5-((((6-(2-Chloro-3-(3-chloro-2-(4-methyl-1,1-dioxido-2,3,4,5-tetrahydrobenzo[f][1,4]thiazepin-8-yl)pyridin-4-yl)phenyl)-2-methoxypyridin-3-yl)methyl)amino)methyl)pyrrolidin-2-one]
EC50: ≥ 10 µM

COc1cc(-c2ncnc(-c3cccc(-c4ccc(CN5CCN(C(C)=O)CC5)c(OC)n4)c3Cl)c2Cl)ccc1CN1CCN(C(C)=O)CC1 [Example 562, 1-(4-((6-(3-(6-(4-((4-acetylpiperazin-1-yl)methyl)-3-methoxyphenyl)-5-chloropyrimidin-4-yl)-2-chlorophenyl)-2-methoxypyridin-3-yl)methyl)piperazin-1-yl)ethan-1-one]
EC50: ≥ 10 µM

COc1cc(-c2ncnc(-c3cccc(-c4ccc(CN5CC6(CC(O)C6)C5)c(OC)n4)c3Cl)c2Cl)ccc1CN1CC2(CC(O)C2)C1 [Example 568, 2-((6-(2-chloro-3-(5-chloro-6-(4-((6-hydroxy-2-azaspiro[3.3]heptan-2-yl)methyl)-3-methoxyphenyl)pyrimidin-4-yl)phenyl)-2-methoxypyridin-3-yl)methyl)-2-azaspiro[3.3]heptan-6-ol]
EC50: 0.187 µM

COc1cc(-c2nccc(-c3cccc(-c4ccc(CN5CC6(CC(=O)N(C)C6)C5)c(OC)n4)c3Cl)c2Cl)ccc1CN1CC2(CC(=O)N(C)C2)C1 [Example 571, 2-(4-(3-chloro-4-(2-chloro-3-(6-methoxy-5-((6-methyl-7-oxo-2,6-diazaspiro[3.4]octan-2-yl)methyl)pyridin-2-yl)phenyl)pyridin-2-yl)-2-methoxybenzyl)-6-methyl-2,6-diazaspiro[3.4]octan-7-one]
EC50: 0.0875 µM

COc1cc(-c2nccc(-c3cccc(-c4ccc(CN5CC6(CNC(=O)C6)C5)c(OC)n4)c3C(F)(F)F)c2Cl)ccc1CN1CC2(CNC(=O)C2)C1 [Example 576, 2-((6-(3-(3-chloro-2-(3-methoxy-4-((7-oxo-2,6-diazaspiro[3.4]octan-2-yl)methyl)phenyl)pyridin-4-yl)-2-(trifluoromethyl)phenyl)-2-methoxypyridin-3-yl)methyl)-2,6-diazaspiro[3.4]octan-7-one]
EC50: ≥ 10 µM
